In paper PMC6106931 (Alzheimer's Research & Therapy, 2018):
Entries after “also recorded” stand apart in the source; their conditions may differ.

Key:
t-tau/p-tau181p = assay: CSF total tau / p-tau181P, Study ALZ1005; assay type: in vivo, human; details: for CSF P-tau percent change from baseline at day 28, Mean (SD) / CSF P-tau percent change from baseline at day 28, Median (range) / CSF total tau percent change from baseline at day 28, Mean (SD) / CSF total tau percent change from baseline at day 28, Median (range): Caucasian early AD
Experimental: In addition, exploratory measurements of plasma/CSF levels of APP fragments (sAPPα, sAPPβ, and total sAPP) and CSF levels of BACE1, t-tau, and p-tau were performed.
Baseline Aβ1–42, p-tau181P, and t-tau concentrations were measured using Innotest® Phospho-TAU181P, Innotest® hTAU Ag, and Innotest® β-AMYLOID1–42 (Innogenetics/Fujirebio, Ghent, Belgium) and the Luminex analytical platform (Luminex Corp., Austin, TX, USA). CSF samples from both the ALZ1005 (Caucasian) and ALZ1008 (Japanese) studies were analyzed in the same laboratory setting using the same assays and analytical platform. Diagnostic threshold CSF concentrations for AD vs. normal controls for Aβ1–42 were applied to the current sample set to judge the likelihood of having cerebral amyloid plaque deposition.
Treatment effect on plasma/CSF Aβ as compared with placebo was estimated by 95% CI for percent changes from baseline in each of the Aβ fragments (Aβ1–37, Aβ1–38, Aβ1–40, and Aβ1–42) in CSF and plasma. For primary and secondary biomarkers, day 28% changes from baseline, the least squares (LS) means (converted to original units), and treatment differences relative to placebo (with corresponding 95% CI) were analyzed on the basis of an analysis of covariance model that included treatment group and baseline score as a covariate. Day 28 changes from baseline in CSF tau/p-tau were summarized using descriptive statistics. Data were summarized and plotted by dose group, and exposure-response relationship was explored. […] Variability of predose baseline parameters vs. day 28 individual CSF ratios of Aβ1–42 to Aβ1–40 across treatment groups was explored graphically. Analyses were performed on individual populations of preclinical AD and MCI due to AD as well as the combined population of early AD.

[1] = Plasma and CSF pharmacokinetics, population PK modeling, Study ALZ1005; assay type: in vivo, human; details: for Kp at 28 day: CSF / free plasma; for concentration at 28 day: CSF, read-out: C28d, CSF concentration at Day 28, Mean (SD); for AUC: read-out: Plasma AUCτ, Day 28, Mean (SD); for Cmax: read-out: Plasma Cmax, Day 28, Mean (SD)
Experimental: CSF and plasma collection and processing, as well as apolipoprotein E (APOE) ε4 genotyping, are described in Additional file 2. Population PK modeling from sparse PK samples collected in the ALZ1005 Study was performed to derive individual steady-state maximum plasma concentration [Cmax] and area under the concentration-time profile during the dosing interval at steady state [AUC from 0 to 24 hours postdosing]. This model was also used to derive PK/PD simulations of CSF Aβ1–40 reduction (described in “Pharmacokinetic/pharmacodynamic relationship” section below).
(§1) The lower limit of quantification (LLOQ) was 1 ng/ml.

[2] = Plasma and CSF pharmacokinetics, noncompartmental analysis, Study ALZ1008; assay type: in vivo, human; details: for Kp at 28 day: CSF / free plasma, observed plasma concentration, free fraction 6%, read-out: Ratio C28d (CSF)/free plasma, Mean (SD); for concentration at 28 day: CSF, read-out: C28d, CSF concentration at Day 28, Mean (SD); for AUC: read-out: Plasma AUCτ, Day 28, Mean (SD)
Experimental: Total apparent clearance for day 28 was calculated as dose/AUCτ.
as §1

[3] = Clinical safety, Study ALZ1008; details: Japanese preclinical AD
Experimental: Safety and tolerability were assessed during the study by recording adverse events (AEs), clinically significant abnormalities, clinical laboratory tests, ECG, and vital signs and by performing physical, neurological, and MRI examinations. All enrolled participants were included in the safety analysis population.

[4] = human, plasma, oral, Caucasian early AD, 10 mg q.d., population PK modeling
[5] = human, plasma, oral, Caucasian early AD, 50 mg q.d., population PK modeling
[6] = Japanese preclinical AD, 10 mg q.d.
[7] = Japanese preclinical AD, 50 mg q.d.

## C[C@@]1(c2cc(NC(=O)c3ccc(C#N)cn3)ccc2F)C=CSC(N)=N1 [atabecestat]
t-tau/p-tau181p; 10-mg and 50-mg doses, Caucasian and Japanese
  changes in CSF t-tau or p-tau over 4-week treatment: no relevant changes
t-tau/p-tau181p; 10 mg daily
  CSF P-tau percent change from baseline at day 28, Mean (SD): 3.56 (4.797) %
  CSF P-tau percent change from baseline at day 28, Median (range): 3.45 (− 4.6; 11.5) %
  CSF total tau percent change from baseline at day 28, Mean (SD): 4.18 (7.629) %
  CSF total tau percent change from baseline at day 28, Median (range): 6.76 (− 11.2; 16.1) %
t-tau/p-tau181p; 50 mg daily
  CSF P-tau percent change from baseline at day 28, Mean (SD): 7.36 (3.648) %
  CSF P-tau percent change from baseline at day 28, Median (range): 7.42 (1.6; 16.7) %
  CSF total tau percent change from baseline at day 28, Mean (SD): 8.02 (6.557) %
  CSF total tau percent change from baseline at day 28, Median (range): 7.64 (− 4.5; 23.4) %
[1]; Caucasian and Japanese early AD
  CNS penetrance of unbound drug: high central nervous system penetrance of unbound drug; also recorded: high CNS penetrance of unbound drug
[1]; Caucasian early AD (preclinical AD and MCI due to AD), 10 and 50 mg q.d., population PK estimate, intersubject CV 30%
  CL/F: 8.32 L/h
[1]; Caucasian early AD, 10 mg q.d.
  DN AUCτ (dose normalization to 5 mg), Day 28, Mean (SD): 616 (185) ng.h/mL
  DN C28d (CSF, dose normalization to 5 mg), Mean (SD): 1.54 (0.52) ng/mL
  DN Cmax (dose normalization to 5 mg), Day 28, Mean (SD): 55 (10) ng/mL
[1]; Caucasian early AD, 50 mg q.d.
  DN AUCτ (dose normalization to 5 mg), Day 28, Mean (SD): 620 (171) ng.h/mL
  DN C28d (CSF, dose normalization to 5 mg), Mean (SD): 1.51 (0.71) ng/mL
[1]; both populations, 10 and 50 mg
  PK linearity: linear PK
[1]; human, oral, Caucasian early AD, 10 mg q.d., simulated plasma concentration, free fraction 6%, read-out: Ratio C28d (CSF)/free plasma, Mean (SD)
  Kp at 28 day: 0.789
[1]; human, oral, Caucasian early AD, 50 mg q.d., simulated plasma concentration, free fraction 6%, read-out: Ratio C28d (CSF)/free plasma, Mean (SD)
  Kp at 28 day: 0.892
[1]; human, oral, Caucasian early AD, 10-mg and 50-mg groups together, day 28
  Kp at 28 day: 0.84
[1]; human, oral, Caucasian early AD, 10 mg q.d.
  concentration at 28 day: 3.08 ng/mL
[1]; human, oral, Caucasian early AD, 50 mg q.d.
  concentration at 28 day: 15.1 ng/mL
[1]; [4]
  Tmax at 28 day: 1.7 h
  AUC: 1230 ng·h/mL
  Cmax: 110 ng/mL
[1]; [5]
  AUC: 6200 ng·h/mL
  Cmax: 550 ng/mL
[1]; human, plasma, oral, Caucasian early AD, 50 mg q.d., population PK modeling, read-out: Plasma Tmax, Day 28
  Tmax: 1.8 h
[2]; Japanese participants, based on mean predose concentrations
  day at or before which steady-state PK was reached: ≤ 8 days
[2]; [6]
  DN AUCτ (dose normalization to 5 mg), Day 28, Mean (SD): 555 (158) ng.h/mL
  DN Cmax (dose normalization to 5 mg), Day 28, Mean (SD): 53.6 (14.1) ng/mL
  Plasma Tmax, Day 28, Median (Range): 2.0 (1.0-3.0) h
[2]; [7]
  DN AUCτ (dose normalization to 5 mg), Day 28, Mean (SD): 473 (255) ng.h/mL
  DN Cmax (dose normalization to 5 mg), Day 28, Mean (SD): 51.6 (26.7) ng/mL
  Plasma Cmax, Day 28, Mean (SD): 516 (267) ng/mL
  Plasma Tmax, Day 28, Median (Range): 1.5 (1.0-2.0) h
[2]; human, oral, 10 mg, Japanese preclinical AD, 10 mg q.d.
  Kp at 28 day: 0.65
[2]; human, oral, 50 mg, Japanese preclinical AD, 50 mg q.d.
  Kp at 28 day: 0.83
[2]; human, oral, Japanese preclinical AD, 10 mg q.d.
  concentration at 28 day: 3.29 ng/mL
[2]; human, oral, Japanese preclinical AD, 50 mg q.d.
  concentration at 28 day: 19.1 ng/mL
[2]; human, plasma, oral, Japanese preclinical AD, 10 mg q.d.
  AUC: 1110 ng·h/mL
[2]; human, plasma, oral, Japanese preclinical AD, 10 mg q.d., read-out: Plasma Cmax, Day 28, Mean (SD)
  Cmax: 107 ng/mL
[2]; human, plasma, oral, Japanese preclinical AD, 50 mg q.d.
  AUC: 4730 ng·h/mL
[3]
  incidence of SAE: no reported incidence of SAE
[3]; no changes from baseline > 30-ms
  changes in QTcF: no clinically significant changes
